For one assay, the system named is M. tuberculosis H37Rv. The assay is described as follows: microbe, parasite or virus in culture. The format is cell-based, Mycobacterium tuberculosis. Conditions: for MIC: Mycobacterium tuberculosis, H37RV, read-out: M. tuberculosis MIC.
Another assay deals with T1, Mtb Dxr (Mycobacterium tuberculosis, UniProt P9WNS1).
T1 sequence (P9WNS1 1-413): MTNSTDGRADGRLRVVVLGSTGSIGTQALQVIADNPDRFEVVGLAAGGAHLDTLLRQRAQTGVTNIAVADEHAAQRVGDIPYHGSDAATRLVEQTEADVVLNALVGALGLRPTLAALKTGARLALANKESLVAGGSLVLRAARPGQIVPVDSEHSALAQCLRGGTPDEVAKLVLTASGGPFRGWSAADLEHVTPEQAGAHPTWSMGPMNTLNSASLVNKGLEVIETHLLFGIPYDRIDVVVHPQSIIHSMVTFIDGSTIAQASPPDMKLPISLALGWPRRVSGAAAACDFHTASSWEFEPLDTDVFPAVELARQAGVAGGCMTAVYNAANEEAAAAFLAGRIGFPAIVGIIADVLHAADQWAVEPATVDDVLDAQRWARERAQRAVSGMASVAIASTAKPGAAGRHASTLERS
The format is biochemical. Conditions: for IC50: read-out: Mtb Dxr IC50.

The next assay concerns the target Yp Dxr (Yersinia pestis, UniProt Q8ZH62). The format is biochemical. Conditions: for IC50: read-out: Yp Dxr IC50.
For another assay, the system named is Dxr. Conditions: cited from earlier work.

The text below walks through data of PMC5266543 (ACS infectious diseases, 2016).

≈ marks a conversion by molar mass, not a printed value. Entries after “also recorded” stand apart in the source; their conditions may differ. Like-named read-outs stand apart in the source and are kept apart here. Marks after values point to notes of the source that are not given here. Bounds are passed on as bounds.

Sequence of Yp Dxr (Q8ZH62 whole entry, looked up): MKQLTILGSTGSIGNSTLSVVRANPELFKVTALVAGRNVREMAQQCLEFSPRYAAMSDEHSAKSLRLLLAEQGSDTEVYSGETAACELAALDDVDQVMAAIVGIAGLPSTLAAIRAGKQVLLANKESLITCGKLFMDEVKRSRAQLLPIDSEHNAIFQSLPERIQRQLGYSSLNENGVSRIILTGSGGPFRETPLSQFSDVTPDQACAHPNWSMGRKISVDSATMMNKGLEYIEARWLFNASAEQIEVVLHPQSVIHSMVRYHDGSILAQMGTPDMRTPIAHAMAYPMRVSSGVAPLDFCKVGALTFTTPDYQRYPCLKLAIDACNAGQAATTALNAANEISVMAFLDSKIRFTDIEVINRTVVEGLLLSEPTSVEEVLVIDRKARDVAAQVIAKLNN

Regarding `CC(=O)N(CCCP(=O)([O-])O)OCc1ccc(-c2ccc(C(C)C)cc2)cc1.[Na+]` [Compound 16p, Sodium Hydrogen 3-(N-((4'-isopropyl-[1,1'-biphenyl]-4-yl)methoxy)acetamido)propyl phosphonate], the “M. tuberculosis MIC” value in the assay on M. tuberculosis H37Rv is given as 100 (6.25–12.5) µg/mL.
Same read-out and setting: for `CC(=O)N(CCCP(=O)(OCOC(=O)C(C)(C)C)OCOC(=O)C(C)(C)C)OCc1ccc(-c2ccccc2)cc1` [Compound 19, [({[(2,2-dimethylpropanoyl)oxy]methoxy}(3-{N-[(4-phenylphenyl)methoxy]acetamido}propyl)phosphoryl)oxy]methyl 2,2-dimethyl propanoate] the value was 12.5 (3.13–6.25) µg/mL.
As a reminder, the Ki is the equilibrium dissociation constant of an inhibitor or competing ligand from its target. As a reminder, the IC50 is the concentration that gives 50% inhibition. Consider `O=C(c1ccccc1)N(O)CCCP(=O)([O-])O.[Na+]` [Compound 8e, Sodium hydrogen-3-(N-hydroxybenzamido)propyl phosphonate], for which the “M. tuberculosis MIC” value in the assay on M. tuberculosis H37Rv is on record as ≥200 µg/mL. In addition, on Mtb Dxr, the “percent remaining enzyme activity at 100 µM (Mtb Dxr)” value was “(70) percent”. At Yp Dxr, the “inhibition of Yp Dxr (in words)” value is recorded as “most active”; the “inhibitor modality (Lineweaver-Burk)” value was “competitive with both NADPH and DXP”; the “selectivity between Dxr homologs (Yp versus Mtb)” value (from here on “selectivity between Dxr homologs”) was “significantly more potent against Yp Dxr”; the IC50 worked out at 4.45 µM. In addition, the Ki on Yp Dxr (read-out: Ki relative to DXP) is 7.9 µM. Besides, the Ki at Yp Dxr (read-out: Ki with respect to NADPH) was 1.8 µM.
Take `CC(=O)N(CCCP(=O)([O-])O)OCCc1ccc(O)cc1.[Na+]` [Compound 16g, Sodium Hydrogen 3-(N-(4-hydroxyphenethoxy)acetamido)propyl phosphonate]: on Mtb Dxr, the “percent remaining enzyme activity at 100 µM (Mtb Dxr)” value is recorded as “(59) percent”. Besides, at Yp Dxr, the “inhibition of Yp Dxr (in words)” value was “most active”, the “percent remaining enzyme activity at 100 µM (Yp Dxr)” value is on record as “(22) percent” and the “selectivity between Dxr homologs” value is listed as “same trend”.
Turning to `CC(=O)N(CCCP(=O)(OCOC(=O)C(C)(C)C)OCOC(=O)C(C)(C)C)OCc1ccc2ccccc2c1` [Compound 20, [({[(2,2-dimethylpropanoyl)oxy]methoxy}({3-[N-(naphthalen-2-ylmethoxy)acetamido]propyl})phosphoryl)oxy]methyl 2,2-dimethylpropanoate], the “M. tuberculosis MIC” value in the assay on M. tuberculosis H37Rv is 18.75 (4.7) µg/mL.
Turning to `CC(=O)N(CCCP(=O)([O-])O)OCc1ccc(-c2ccc(C(F)(F)F)cc2)cc1.[Na+]` [Compound 16r, Sodium Hydrogen 3-(N-((4'-(trifluoromethyl)-[1,1'-biphenyl]-4-yl)methoxy)acetamido)propyl phosphonate], the “percent remaining enzyme activity at 100 µM (Mtb Dxr)” value at Mtb Dxr is “(70) percent”. In addition, at Yp Dxr, the “inhibition of Yp Dxr (in words)” value is listed as “most active” and the “percent remaining enzyme activity at 100 µM (Yp Dxr)” value is listed as “(19) percent”.
On to `O=C(COc1ccc(Cl)cc1)N(O)CCCP(=O)([O-])O.[Na+]` [Compound 8l, Sodium hydrogen-3-(2-(4-chlorophenoxy)-N-hydroxyacetamido)propyl phosphonate], for which, in the assay on M. tuberculosis H37Rv, the “M. tuberculosis MIC” value is >200 (25) µg/mL.
`CC(=O)N(CCCP(=O)([O-])O)OCCCCc1ccccc1.[Na+]` [Compound 16h, Sodium Hydrogen 3-(N-(4-phenylbutoxy)acetamido)propyl phosphonate]: in the assay with M. tuberculosis H37Rv, the “M. tuberculosis MIC” value is ≥200 µg/mL.
As for `O=CN(O)CCCP(=O)(O)O` [Compound 1, fosmidomycin, reference compound], the MIC in the assay with M. tuberculosis H37Rv was > 500 µg/mL. Also, the mechanism of inhibition entry in the assay on Dxr is “competitive inhibitors with respect to DXP and uncompetitive relative to NADPH”.
With `CC(=O)N(CCCP(=O)([O-])O)OCc1ccc(C(C)C)cc1.[Na+]` [Compound 16d, Sodium Hydrogen 3-(N-((4-isopropylbenzyl)oxy)acetamido)propyl phosphonate], the “M. tuberculosis MIC” value with M. tuberculosis H37Rv was 200 (25) µg/mL. For the same compound, on Mtb Dxr, the “inhibition of Mtb Dxr (in words)” value was “potent inhibitors; also recorded: greatest inhibition” and the IC50 came to 48.4 µM. In addition, on Yp Dxr, the “inhibition of Yp Dxr (in words)” value is recorded as “potent inhibitors; also recorded: most active”, the “selectivity between Dxr homologs” value is “more potent against Yp Dxr” and the IC50 is 1.19 µM.
With `CCCCC(=O)N(O)CCCP(=O)([O-])O.[Na+]` [Compound 8a, Sodium hydrogen-3-(N-hydroxypentanamido)propyl phosphonate], the “inhibition of Mtb Dxr (in words)” value against Mtb Dxr was “greatest inhibition”.
As to `CC(=O)N(CCCP(=O)([O-])O)OCc1ccc(-c2ccccc2)cc1.[Na+]` [Compound 16k, Sodium Hydrogen 3-(N-([1,1'-biphenyl]-4-ylmethoxy)acetamido)propyl phosphonate], the “M. tuberculosis MIC” value in the assay on M. tuberculosis H37Rv is 25 to 50 µg/mL. On Mtb Dxr, the “inhibition of Mtb Dxr (in words)” value was “potent inhibitors; also recorded: greatest inhibition” and the “percent remaining enzyme activity at 100 µM (Mtb Dxr)” value is on record as “(36.8) percent”. In addition, on Yp Dxr, the “inhibition of Yp Dxr (in words)” value was “potent inhibitors; also recorded: most active”, the “selectivity between Dxr homologs” value was “more potent against Yp Dxr” and the IC50 came to 8.4 µM.
With `O=C(N(O)CCCP(=O)([O-])O)N(c1ccccc1)c1ccccc1.[Na+]` [Compound 8n, Sodium hydrogen-3-(1-hydroxy-3,3-diphenylureido)propyl phosphonate], the “inhibition of Mtb Dxr (in words)” value against Mtb Dxr is recorded as “ineffective”. Besides, the “inhibition of Yp Dxr (in words)” value against Yp Dxr was “ineffective”.
As for `CC(=O)N(CCCP(=O)(OCOC(=O)C(C)(C)C)OCOC(=O)C(C)(C)C)OCCCCc1ccccc1` [Compound 18, [({[(2,2-dimethylpropanoyl)oxy]methoxy}({3-[N-(4-phenylbutoxy)acetamido]propyl})phosphoryl)oxy]methyl 2,2-dimethylpropanoate], in the assay on M. tuberculosis H37Rv, the MIC came to 12.5 µg/mL (≈ 22.4 µM).
As for `CC(=O)N(CCCP(=O)([O-])O)OC(C)c1ccccc1.[Na+]` (stereo not shown) [Compound 16e, Sodium Hydrogen 3-(N-(1-phenylethoxy)acetamido)propyl phosphonate], on Mtb Dxr, the “inhibition of Mtb Dxr (in words)” value is reported as “greatest inhibition” and the “percent remaining enzyme activity at 100 µM (Mtb Dxr)” value is listed as “(38.1) percent”. Also, at Yp Dxr, the “inhibition of Yp Dxr (in words)” value is listed as “most active” and the “percent remaining enzyme activity at 100 µM (Yp Dxr)” value is listed as “(19) percent”.
Consider `O=C(CCC1CCCCC1)N(O)CCCP(=O)([O-])O.[Na+]` [Compound 8d, Sodium hydrogen-3-(3-cyclohexyl-N-hydroxypropanamido)propyl phosphonate], for which the “M. tuberculosis MIC” value in the assay on M. tuberculosis H37Rv is >200 (25) µg/mL.
On to `NNC(=O)c1ccncc1` [INH, reference compound], for which the “M. tuberculosis MIC” value in the assay with M. tuberculosis H37Rv was 0.01 µg/mL.
With `CCCCCCC(=O)N(O)CCCP(=O)([O-])O.[Na+]` [Compound 8b, Sodium hydrogen-3-(N-hydroxyheptanamido)propyl phosphonate], on Mtb Dxr, the “inhibition of Mtb Dxr (in words)” value is listed as “inhibited; also recorded: greatest inhibition” and the “percent remaining enzyme activity at 100 µM (Mtb Dxr)” value was “(43) ^* percent”. Also, on Yp Dxr, the “inhibition of Yp Dxr (in words)” value is on record as “inhibited; also recorded: most active” and the “percent remaining enzyme activity at 100 µM (Yp Dxr)” value is given as “(27) percent”.
In the case of `CC(=O)N(CCCP(=O)(OCOC(=O)c1ccccc1)OCOC(=O)c1ccccc1)OCCCCc1ccccc1` [Compound 21, [({[(benzoyl)oxy]methoxy}({3-[N-(4-phenylbutoxy)acetamido]propyl})phosphoryl)oxy]methyl benzoate], the MIC in the assay on M. tuberculosis H37Rv amounted to 25 µg/mL (≈ 41.8 µM).
Take `CC(=O)N(CCCP(=O)([O-])O)OCc1cccc2ccccc12.[Na+]` [Compound 16i, Sodium Hydrogen 3-(N-(naphthalen-1-ylmethoxy)acetamido)propyl phosphonate]: on Mtb Dxr, the “inhibition of Mtb Dxr (in words)” value is recorded as “greatest inhibition” and the “percent remaining enzyme activity at 100 µM (Mtb Dxr)” value is “(29) percent”. In addition, at Yp Dxr, the “inhibition of Yp Dxr (in words)” value is recorded as “most active”, the “selectivity between Dxr homologs” value is “more potent against Yp Dxr” and the IC50 was determined as 22.4 µM.
In the case of `CC(=O)N(CCCP(=O)([O-])O)OCc1ccc2ccccc2c1.[Na+]` [Compound 16j, Sodium Hydrogen 3-(N-(naphthalen-2-ylmethoxy)acetamido)propyl phosphonate], in the assay with M. tuberculosis H37Rv, the “M. tuberculosis MIC” value is listed as ≥200 µg/mL. On Mtb Dxr, the “inhibition of Mtb Dxr (in words)” value is “potent inhibitors; also recorded: greatest inhibition”; the “inhibitor modality (Lineweaver-Burk)” value was “competitive with both NADPH and DXP”; the IC50 was determined as 1.45 µM. For the same compound, on Mtb Dxr (read-out: Ki relative to NADPH), the Ki came to 17.8 µM. Further, at Mtb Dxr (read-out: Ki with respect to DXP), the Ki turned out to be 1 µM. Besides, at Yp Dxr, the “inhibition of Yp Dxr (in words)” value is reported as “potent inhibitors; also recorded: most active” and the IC50 amounted to 0.33 µM.
For the compound `CC(=O)N(CCCP(=O)(OCOC(=O)C(C)(C)C)OCOC(=O)C(C)(C)C)OCc1ccc(C(C)C)cc1` [Compound 17, [({[(2,2-dimethylpropanoyl)oxy]methoxy}[3-(N-{[4-(propan-2-yl)phenyl]methoxy}acetamido)propyl]phosphoryl)oxy]methyl 2,2-dimethyl propanoate], in the assay with M. tuberculosis H37Rv, the “M. tuberculosis MIC” value is reported as 12.5 (6.25–12.5) µg/mL.
On to `Cc1ccc(C(=O)N(O)CCCP(=O)([O-])O)cc1.[Na+]` [Compound 8f, Sodium hydrogen-3-(N-hydroxy-4-methylbenzamido)propyl phosphonate], for which the “percent remaining enzyme activity at 100 µM (Mtb Dxr)” value on Mtb Dxr is “(74) percent”. Further, at Yp Dxr, the “inhibition of Yp Dxr (in words)” value is “most active”, the “selectivity between Dxr homologs” value is “significantly more potent against Yp Dxr” and the IC50 came out at 16 µM.
